Data set [1] deals with Trypanosoma brucei. In words: DNDI: Inhibition of Human African Trypanosomiasis, SBRI 427, in vitro. Type of data set: functional, organism-based.
Data set [2] can be described thus: DNDI: half life in human liver microsomes at a concentration of 10uM. Type of data set: ADME, Microsome.
Data set [3] can be described thus: DNDI: Solubility in phosphate buffered saline at pH7.4 measured by nephelometry at room temperature (NEPH-RT). It is filed as physicochemical. The note with it: pH 7.4.
The next data set deals with Leishmania donovani. Description: DNDI: Inhibition of formation of Leishmania donovani (strain MHOM/ET/67/L82) axenic amastigotes, in vitro. Type of data set: functional, organism-based.
Data set [4] can be described thus: in vitro. The note with it: mouse, microsomes, t (1 / 2).
Description: DNDI: half life in mouse liver microsomes at a concentration of 1uM
Data set [5] can be described thus: DNDI: Cytotoxicity against L-6 rat myoblasts from skeletal muscle cells. The note with it: L-6 rat skeletal muscle myoblasts. It is filed as toxicity, cell-based, L6.
A short description of data set [6]: DNDI: half life in mouse liver microsomes at a concentration of 10uM. It is filed as ADME, Microsome.
Data set [7] is described as follows: DNDI: in vitro intrinsic clearance in human liver microsomes at a concentration of 10uM. Type of data set: ADME, Microsome.
Data set [8] in a line: DNDI: Cytotoxicity against L929 mouse fibroblasts, CYTO-SP, 24 hour. Type of data set: toxicity, cell-based. The note with it: mouse, L929 mouse fibroblasts.
A further data set has as its system Plasmodium falciparum. Description: DNDI: Inhibition of the malaria parasite Plasmodium falciparum, in vitro. Type of data set: functional, organism-based. As to conditions: K1.
The subject of data set [9] is Trypanosoma brucei. Description: DNDI: Mean survival time in days (MSD) of mice after intraperitoneal injection of Human African Trypanosomiasis (HAT), EATRO 110, in vivo at 20 mg/kg/day for 4 days. It is filed as functional, Mus musculus.
The subject of data set [10] is Trypanosoma brucei rhodesiense. In words: DNDI: Inhibition of Human African Trypanosomiasis (HAT), STIB 900, in vitro. Type of data set: functional, organism-based.
A short description of data set [11]: (§1) DNDI: Cytotoxicity against L929 mouse fibroblasts, 72 hour. The note with it: mouse, L929 mouse fibroblasts. It is filed as toxicity, cell-based.
For data set [12] the following is noted: mouse, microsomes, 1 µM.
Description: DNDI: in vitro intrinsic clearance in mouse liver microsomes at a concentration of 1uM
Data set [13] concerns Trypanosoma brucei. In words: DNDI: Mean survival time in days (MSD) of mice after intraperitoneal injection of Human African Trypanosomiasis (HAT), EATRO 110, in vivo at 5 mg/kg/day for 4 days. It is filed as functional, Mus musculus.
In a further data set the test system is Trypanosoma cruzi. In words: DNDI: Inhibition of Chagas Disease parasite Trypanosoma cruzi (Tulahuen LacZ, Clone C4), in vitro. Type of data set: functional, organism-based.
Data set [14] can be described thus: DNDI: Solubility in phosphate buffered saline at pH7.4 measured by optical density (turbidimetry) at room temperature (OD-RT). It is filed as physicochemical. The note with it: pH 7.4.
Data set [15] is described as follows: DNDI: in vitro intrinsic clearance in mouse liver microsomes at a concentration of 10uM. Type of data set: ADME, Microsome. As to conditions: read-out: CLint in vitro.
Data set [16] in a line: DNDI: Lipophilicity measured in Chromatographic hydrophobicity index (CHI) assay, pH 7.4. The note with it: buffer. Type of data set: physicochemical.
Data set [17] can be described thus: in vitro. The note with it: human, microsomes, CLint in vitro.
Description: DNDI: in vitro intrinsic clearance in human liver microsomes at a concentration of 1uM
Data set [18] has as its system Trypanosoma brucei. Description: DNDI: Inhibition of Human African Trypanosomiasis, Cross 22, in vitro. It is filed as functional, organism-based.
The nature of data set [19]: in vitro. As to conditions: human, microsomes, t (1 / 2).
Description: DNDI: half life in human liver microsomes at a concentration of 1uM
The test system of a further data set is L929. Described as §1. It is filed as toxicity, cell-based. As to conditions: l929.
Data set [20] can be described thus: DNDI: half-life in mouse S9 microsomes at a concentration of 1uM. Type of data set: ADME, subcellular, Liver, S9 fraction.
Data set [21] has as its target T1, MDR1 (ABCB1) (Homo sapiens, UniProt P08183). In words: DNDI: % of compound recovered from apical to basolateral permeability assay in MDCK cells transfected with human MDR1 after 60 mins at a concentration of 3uM in the presence of GF120918. It is filed as ADME, cell-based, Canis lupus familiaris. The note with it: dog, MDCK-MDR1, with GF120918 (concentration not stated).

Data set [22] has as its target T1, MDR1 (ABCB1). In words: DNDI: % of compound recovered from apical to basolateral permeability assay in MDCK cells transfected with human MDR1 after 60 mins at a concentration of 3uM. The note with it: dog. It is filed as ADME, cell-based, Canis lupus familiaris.
In data set [23] the target is T1, MDR1 (ABCB1). Description: DNDI: Apparent permeability from apical to basolateral side of the MDCK cell transfected with human MDR1after 60 mins at a concentration of 3uM. It is filed as ADME, cell-based, Canis lupus familiaris. The note with it: dog, MDCK-MDR1.
For data set [24], the target named is T1, MDR1 (ABCB1). Description: DNDI: Efflux ratio for permeability from basolateral to apical side to apical to basolateral side of MDCK cells transfected with human MDR1. It is filed as ADME, cell-based, Canis lupus familiaris. As to conditions: dog, MDCK-MDR1; read-out: Calculated Ratio.
The mark [25] stands for this setting: Trypanosoma brucei, SBRI 427, read-out: IC50.

In brackets after ≈: the same amount, converted by molar mass. Several values for one entry are separate records, joined by “and”; a condition that tells them apart may be missing. Equal values may be shown once.

T1 sequence (P08183 whole entry): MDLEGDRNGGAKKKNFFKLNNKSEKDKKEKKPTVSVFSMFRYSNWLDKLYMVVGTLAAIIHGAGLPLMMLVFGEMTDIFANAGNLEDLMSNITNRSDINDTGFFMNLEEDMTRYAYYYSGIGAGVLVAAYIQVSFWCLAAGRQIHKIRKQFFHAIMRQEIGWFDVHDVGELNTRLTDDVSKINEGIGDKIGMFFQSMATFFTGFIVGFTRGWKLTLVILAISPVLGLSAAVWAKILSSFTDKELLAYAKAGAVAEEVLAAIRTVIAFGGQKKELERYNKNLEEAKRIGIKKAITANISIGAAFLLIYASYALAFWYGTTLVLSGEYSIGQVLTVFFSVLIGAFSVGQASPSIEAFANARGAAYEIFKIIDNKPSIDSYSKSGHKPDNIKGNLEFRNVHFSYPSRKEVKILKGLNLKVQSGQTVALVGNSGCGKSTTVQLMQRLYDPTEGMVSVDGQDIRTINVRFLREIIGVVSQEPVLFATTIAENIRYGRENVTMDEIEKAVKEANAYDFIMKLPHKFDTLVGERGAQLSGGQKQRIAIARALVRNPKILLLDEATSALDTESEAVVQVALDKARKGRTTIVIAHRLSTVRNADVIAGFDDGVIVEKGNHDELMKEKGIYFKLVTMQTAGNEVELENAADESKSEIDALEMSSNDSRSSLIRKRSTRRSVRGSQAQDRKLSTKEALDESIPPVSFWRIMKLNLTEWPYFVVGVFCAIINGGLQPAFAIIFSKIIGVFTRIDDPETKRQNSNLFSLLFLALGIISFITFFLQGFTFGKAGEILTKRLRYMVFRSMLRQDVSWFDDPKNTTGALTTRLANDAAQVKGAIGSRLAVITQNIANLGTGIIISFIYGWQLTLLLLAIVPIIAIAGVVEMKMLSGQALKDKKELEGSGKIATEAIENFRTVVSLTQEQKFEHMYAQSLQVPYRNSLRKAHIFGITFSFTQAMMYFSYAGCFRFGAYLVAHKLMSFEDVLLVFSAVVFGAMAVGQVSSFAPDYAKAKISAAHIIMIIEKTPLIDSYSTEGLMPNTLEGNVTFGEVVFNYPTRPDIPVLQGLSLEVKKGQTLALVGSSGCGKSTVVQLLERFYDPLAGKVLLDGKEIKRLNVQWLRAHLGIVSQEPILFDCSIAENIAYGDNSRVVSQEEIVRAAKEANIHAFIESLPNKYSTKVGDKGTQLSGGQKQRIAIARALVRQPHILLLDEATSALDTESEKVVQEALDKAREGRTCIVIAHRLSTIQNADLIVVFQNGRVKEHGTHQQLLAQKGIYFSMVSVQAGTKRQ

In the case of `O/N=C(\NCC1CC1)c1ccccc1-c1ccccc1`, the IC50 with Trypanosoma brucei [1] (setting [25]) is 1.15 µg/mL (≈ 4.32 µM); in the data set with Leishmania donovani it was 32.3 µg/mL (≈ 121 µM); in [5], 72.3 µg/mL (≈ 271 µM); with Plasmodium falciparum it was 3.14 µg/mL (≈ 11.8 µM); in data set [10], 8.1 µg/mL (≈ 30.4 µM); in the data set with Trypanosoma cruzi, greater than 30 µg/mL. Moreover, the values for the half-life at 10 µM in data set [2] and in data set [6] were 633 min and 25 min, respectively. Further, the kinetic solubility in data set [3] and in data set [14] was greater than 200 µM in each case. The half-life at 1 µM in “in vitro [4]” stood at 9 min. Also, the figures for the CLint in vitro in [7] and in data set [12] were 5 µL/min/mg and 93 µL/min/mg, respectively. Also, the IC50 at 24 h in data set [8] was greater than 50 µg/mL. Moreover, the results for the MSD in the data set with Trypanosoma brucei [9] and in the data set with Trypanosoma brucei [13] were 1 days and 4 days, respectively. Also, the IC50 at 72 h in data set [11] is greater than 10 µg/mL. The microsomal CLint at 10 µM in data set [15] came to 117 µL/min/mg. This compound also yielded a chromatographic logD in [16] of 4.04. For the same compound, the logD in [16] was determined as 3.96.
Compound `CCCCc1ccc(-c2nc(CNC3CCCCCC3)co2)cc1` registered a microsomal CLint at 1 µM in the data set “in vitro [17]” of 18 µL/min/mg. For the same compound, the IC50 in the data set on Trypanosoma brucei [18] is 0.4 µg/mL (≈ 1.23 µM); in the data set with Trypanosoma brucei [1], 0.18 µg/mL and 0.33 µg/mL; in the data set on Trypanosoma brucei [1] (setting [25]) it was 0.36 µg/mL (≈ 1.1 µM); with Leishmania donovani it was 10.1 µg/mL (≈ 30.8 µM); in data set [5], 2.85 µg/mL (≈ 8.73 µM); with Plasmodium falciparum, 0.739 µg/mL (≈ 2.26 µM). In addition, the figures for the IC50 (in data set [10]; with Trypanosoma cruzi) were 0.383 µg/mL (≈ 1.17 µM) and 1.43 µg/mL (≈ 4.38 µM), respectively. The solubility (kinetic) in [3] was found to be 13 µM (≈ 4.24 µg/mL). The compound further gave an IC50 at 24 h in data set [8] greater than 50 µg/mL. In addition, the MSD in the data set on Trypanosoma brucei [9] was determined as 3.5 days; with Trypanosoma brucei [13], 4 days. Further, in data set [11], the IC50 at 72 h came out at 1.23 µg/mL (≈ 3.77 µM). Moreover, the half-life at 1 µM in “in vitro [19]” is 48 min. In [16], this compound showed a chromatographic logD of 5.49.
Take `CCCCCC(C)NCc1coc(-c2ccc(OC(C)C)cc2)n1` (centres undefined): the IC50 was 1.07 µg/mL (≈ 3.24 µM) in the data set with Trypanosoma brucei [1] (setting [25]) and 3.42 µg/mL (≈ 10.3 µM) with L929. Besides, the half-life at 10 µM turned out to be 78 min in data set [2] and 81 min in data set [6]. Also, the half-life at 1 µM in the data set “in vitro [4]” came to 35 min. Further, the CLint in vitro in [7] worked out at 37 µL/min/mg; in [12] it was 24 µL/min/mg. Also, the IC50 at 24 h in data set [8] is greater than 50 µg/mL. Further, in [11], it took 2.58 µg/mL (≈ 7.81 µM) to reach half-maximal inhibition (IC50 at 72 h). The same compound gave a kinetic solubility in data set [14] of 12.5 µM (≈ 4.13 µg/mL). For the same compound, the microsomal CLint at 10 µM in [15] is 36 µL/min/mg. In data set [16], this compound had a chromatographic logD of 4.56.
Consider `Cc1cc(NCCN(C)C)n2nc(-c3cccc(F)c3)cc2n1`, for which the half-life at 1 µM in data set [20] is 19 min. For the same compound, the recovery at 1 h, 3 µM on MDR1 (ABCB1) [21] is 108%; on MDR1 (ABCB1) [22], 97%. The IC50 in the data set on Trypanosoma brucei [1] (setting [25]) was greater than 5 µg/mL. Moreover, the solubility (kinetic) in data set [3] was 100 µM (≈ 31.3 µg/mL). Further, in [11], the IC50 at 72 h is greater than 10 µg/mL. Further, the Papp A→B at 1 h, 3 µM at MDR1 (ABCB1) [23] is 46.6 ×10⁻⁶ cm/s. Besides, the efflux ratio on MDR1 (ABCB1) [24] is 0.14. The chromatographic logD in [16] was 4.09.
Turning to `CCCCc1ccc(-c2nc(CNCC(C)(C)CN(C)C)co2)cc1`, the IC50 amounted to 1.55 µg/mL (≈ 4.51 µM) in the data set with Trypanosoma brucei [1] (setting [25]) and 2.73 µg/mL (≈ 7.95 µM) with L929. Besides, the IC50 at 72 h in data set [11] turned out to be 4.92 µg/mL (≈ 14.3 µM).
For `CCCCc1ccc(-c2nc(CNCC(O)CN)co2)cc1` (centres undefined), the IC50 in the data set on Trypanosoma brucei [1] (setting [25]) was determined as 0.6 µg/mL (≈ 1.98 µM); in the data set with L929, 3.31 µg/mL (≈ 10.9 µM). For the same compound, half-maximal inhibition in data set [11] (IC50 at 72 h) required 2.91 µg/mL (≈ 9.59 µM).
Take `Fc1cccc(-c2cc3nc(-c4ccccc4)cc(NCCCN4CCOCC4)n3n2)c1`: the half-life at 1 µM in [20] worked out at 256 min. In addition, the recovery at 1 h, 3 µM on MDR1 (ABCB1) [21] stood at 51%; on MDR1 (ABCB1) [22], 59%. In addition, the IC50 in the data set with Trypanosoma brucei [1] (setting [25]) stood at 5 µg/mL (≈ 11.6 µM). In data set [3], the solubility (kinetic) came to 3 µM (≈ 1.29 µg/mL). In [11], this compound gave an IC50 at 72 h greater than 10 µg/mL. The Papp A→B at 1 h, 3 µM at MDR1 (ABCB1) [23] was 3.26 ×10⁻⁶ cm/s. Besides, the efflux ratio at MDR1 (ABCB1) [24] was 0.05. In [16], this compound gave a chromatographic logD greater than 5.2.
With `Cc1cc(NCCCN2CCOCC2)n2nc(-c3cccc(F)c3)cc2n1`, the half-life at 1 µM in data set [20] stood at 35 min. The recovery at 1 h, 3 µM on MDR1 (ABCB1) [21] came to 85%; on MDR1 (ABCB1) [22] it was 91%. Besides, the IC50 with Trypanosoma brucei [1] (setting [25]) was greater than 5 µg/mL. This compound also showed a solubility (kinetic) in data set [3] of 25 µM (≈ 9.24 µg/mL). In [11], the IC50 at 72 h is greater than 10 µg/mL. The apparent permeability from apical to basolateral (Papp A→B) at 1 h, 3 µM on MDR1 (ABCB1) [23] was determined as 36.1 ×10⁻⁶ cm/s. Moreover, on MDR1 (ABCB1) [24], the efflux ratio was 0.12. In addition, the chromatographic logD in data set [16] was found to be 4.44.
In the case of `CCCCc1ccc(-c2nc(CNCC(C)(C)CN)co2)cc1`, the IC50 in the data set on Trypanosoma brucei [1] (setting [25]) came to 0.39 µg/mL (≈ 1.24 µM); in the data set with L929 it was 2.96 µg/mL (≈ 9.38 µM). Besides, half-maximal inhibition in data set [11] (IC50 at 72 h) required 1.81 µg/mL (≈ 5.74 µM).

The record behind these values is ChEMBL document CHEMBL1857833, “Screening and optimization of specific chemical series against human African Trypanosomiasis (HAT)”.
